Experimental findings from ChEMBL document CHEMBL1137733, “Studies on the interaction of caffeine with bovine hemoglobin” (Eur J Med Chem, 2009) are described below.

The structures appear in SMILES notation.

For the data set, the target named is albumin (Homo sapiens, UniProt P02768). Nature of the data set: Binding affinity to human plasma albumin by ultracentrifugation. In kind it is cell-free. The settings on record: read-out: PB (converted).
Sequence of albumin (P02768 whole entry): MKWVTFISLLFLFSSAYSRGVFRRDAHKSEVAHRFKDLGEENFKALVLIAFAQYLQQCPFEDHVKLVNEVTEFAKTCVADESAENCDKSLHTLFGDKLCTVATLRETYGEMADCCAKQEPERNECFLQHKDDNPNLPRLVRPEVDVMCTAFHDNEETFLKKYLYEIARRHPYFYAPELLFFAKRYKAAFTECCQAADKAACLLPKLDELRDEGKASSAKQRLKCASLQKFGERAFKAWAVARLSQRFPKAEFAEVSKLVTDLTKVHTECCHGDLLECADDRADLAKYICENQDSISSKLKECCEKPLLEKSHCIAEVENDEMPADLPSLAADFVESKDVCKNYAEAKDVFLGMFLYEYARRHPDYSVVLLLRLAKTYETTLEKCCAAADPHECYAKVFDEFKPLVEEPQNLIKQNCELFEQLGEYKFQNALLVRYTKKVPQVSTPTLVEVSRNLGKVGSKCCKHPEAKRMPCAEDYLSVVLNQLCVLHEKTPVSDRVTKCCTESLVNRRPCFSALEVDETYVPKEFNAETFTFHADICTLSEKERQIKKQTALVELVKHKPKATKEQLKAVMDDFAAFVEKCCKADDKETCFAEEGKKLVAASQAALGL

As for `Cn1c(=O)c2c(ncn2C)n(C)c1=O` [CAFFEINE], the fraction unbound was 0.622.
